Row | Compound | melting point [°C]
1 | O=C(CN1CCN(C(=O)c2cc(C(F)(F)F)cc(C(F)(F)F)c2)[C@H](Cc2c[nH]c3ccccc23)C1)N1CCN(C(c2ccccc2)(c2ccccc2)c2ccccc2)CC1 | 160 to 166
2 | COc1c(Cl)nc(-c2ccc(Cl)c(OC)c2F)nc1Cl | 137 to 138
3 | CCCCc1nc2c(N)nc3ccccc3c2n1CCCCNC(=O)Nc1ccc(Oc2ccc(NC(=O)NCCCCn3c(CCCC)nc4c(N)nc5ccccc5c43)cc2)cc1 | 152 to 156
4 | C1CCC2NCCC2C1 (stereo unspecified) | 85
5 | CSC(=NS(=O)(=O)c1ccccc1)c1ccccc1 | 150 to 155
6 | CN(C(=O)C(CC(Cc1ccccc1)C(N)=O)NC(=O)OCc1ccccc1)c1ccc(OCC(=O)NC(CC(N)=O)C(=O)NC(Cc2ccccc2)C(O)C(=O)N2CCCC2C(=O)NC(C)(C)C)cc1 (stereo unspecified) | 85 to 91
7 | Cn1cncc1C(O)(c1ccoc1)c1ccc2c(c1)c(-c1cccc(Cl)c1)cc1nnnn12 (stereo unspecified) | 188
8 | CC(C)[C@H](NC(=O)N(C)Cc1nc2ccccc2[nH]1)C(=O)N[C@@H](Cc1ccccc1)[C@H](O)[C@H](O)[C@H](Cc1ccccc1)NC(=O)[C@@H](NC(=O)N(C)Cc1nc2ccccc2[nH]1)C(C)C | 107 to 109
9 | FC(F)(Br)C(F)(Cl)Br (stereo unspecified) | -72.9
10 | N=S(=O)(c1ccccc1)c1cccnc1 (stereo unspecified) | 109
11 | O=C(Nc1ccc(Br)cc1)OC1CCCNC1 (stereo unspecified) | 169 to 170
12 | CCOCc1nc2c(N)nc3cc(-c4cccnc4)ccc3c2n1CC1CCN(C(=O)C2CCCO2)CC1 (stereo unspecified) | 191 to 192
13 | FC(F)(F)c1ccc(-c2cc(-c3ccc(C(F)(F)F)cc3C(F)(F)F)c3ccc4c(-c5ccc(C(F)(F)F)cc5C(F)(F)F)cc(-c5ccc(C(F)(F)F)cc5C(F)(F)F)c5ccc2c3c54)c(C(F)(F)F)c1 | 290
14 | O=C(OCc1ccc(OCCCCCCCCCCC2c3c(c4ccccc4c4ccccc34)-c3c2c2ccccc2c2ccccc32)cc1)c1cn(C2CC2)c2cc(F)c(F)cc2c1=O | 71 to 73
15 | Cc1ccc2cccc(OCc3c(Cl)ccc(S(=O)(=O)N4CCC[C@H]4C(=O)NC4CCN(C(=O)CCCN(C=NC(=O)OC(C)(C)C)NC(=O)OC(C)(C)C)CC4)c3Cl)c2n1 | 102 to 105
16 | CC(C)(O)C(=O)c1ccc(C(OC(=O)c2ccc(C(=O)OC(c3ccc(C(=O)C(C)(C)O)cc3)c3ccc(C(=O)C(C)(C)O)cc3)cc2)c2ccc(C(=O)C(C)(C)O)cc2)cc1 | 102
17 | CCCCCCCC/C=C\CCCCCCCCNC(=O)OCCCCCCCCCCCCNC(=O)OC1CCN(C(=O)Oc2ccc(Oc3ccccc3)cc2)CC1 | 83 to 84

Row | Compound | melting point [°C]
18 | CCCCCCCCCCCCN1C(=O)NC2(CC(C)(C)N(CC(O)COc3ccc(C(C)(C)c4ccc(OCC(O)CN5C(C)(C)CC6(CC5(C)C)NC(=O)N(CCCCCCCCCCCC)C6=O)cc4)cc3)C(C)(C)C2)C1=O (stereo unspecified) | 159 to 161
19 | CCCCCCCCCS(=O)(=O)c1cc2c3cc(S(=O)(=O)CCCCCCCCC)c(S(=O)(=O)CCCCCCCCC)cc3c3cc(S(=O)(=O)CCCCCCCCC)c(S(=O)(=O)CCCCCCCCC)cc3c2cc1S(=O)(=O)CCCCCCCCC | 202
20 | CCCCCCCCCCCCCCCCCC(=O)OCC=C(C)CCC=C(C)CCC=C(C)CCC=C(C)CCC=C(C)CCC=C(C)CCC=C(C)CCC=C(C)CCC=C(C)C | 36 to 37
21 | CC(=O)OC(CN1C(=O)C2(CC(C)(C)N(C(C)=O)C(C)(C)C2)OC12CCCCCCCCCCC2)CN1C(=O)C2(CC(C)(C)N(C(C)=O)C(C)(C)C2)OC12CCCCCCCCCCC2 | 122
22 | C=CCOc1ccc(C[C@H](NC(=O)OC(C)(C)C)C(=O)N[C@H](C(=O)OC)C(C)C)cc1 | 74 to 76
23 | CC(C)CCCC(C)C1CCC2C3CC=C4CC(N(CCCNC(=O)CCNC(=O)CCCCCNc5ccc([N+](=O)[O-])c6nonc56)S(=O)(=O)c5ccccc5[N+](=O)[O-])CCC4(C)C3CCC12C (stereo unspecified) | 86 to 89
24 | O=C(Nc1ccc(N2CCNCC2)cc1)c1ccccc1-c1ccccc1 | 176
25 | CC(=O)NC1C(OCc2ccccc2)OC(COCc2ccccc2)C(OC2OC(COCc3ccccc3)C(OCc3ccccc3)C(OCc3ccccc3)C2NC(C)=O)C1O (stereo unspecified) | 220 to 222
26 | CC(COC(=O)CCc1cc(C(C)(C)C)c(O)c(C(C)(C)C)c1)(COC(=O)CCc1cc(C(C)(C)C)c(O)c(C(C)(C)C)c1)COC(=O)CCc1cc(C(C)(C)C)c(O)c(C(C)(C)C)c1 | 55 to 78
27 | CC(C)(C)c1cc(Cc2cc(C(C)(C)C)cc(C(C)(C)C)c2Op2oc3c(C(C)(C)C)cc(C(C)(C)C)cc3c3cc(C(C)(C)C)cc(C(C)(C)C)c3o2)c(O)c(C(C)(C)C)c1 | 195 to 205
28 | CC1(C)CC(OC(=O)CCCCCCCCC(=O)OC2CC(C)(C)N(OC3CCCCCCCCCCC3)C(C)(C)C2)CC(C)(C)N1OC1CCCCCCCCCCC1 | 70 to 78
29 | COc1ccc(C(=CC2(C=C(c3ccc(OC)cc3)c3ccc(N4CCCC4)cc3)OC(=O)c3c(Cl)c(Cl)c(Cl)c(Cl)c32)c2ccc(N3CCCC3)cc2)cc1 (stereo unspecified) | 159 to 161
30 | CSCC[C@H](NC(=O)[C@H](CC(C)C)NC(=O)[C@H](C)NC(=O)[C@@H](N)CC(C)C)C(=O)NCCNc1ccc(NCCNC(=O)[C@H](CCSC)NC(=O)[C@H](CC(C)C)NC(=O)[C@H](C)NC(=O)[C@@H](N)CC(C)C)c2c1C(=O)c1c(O)ccc(O)c1C2=O | 210
31 | O=C(CCS(=O)(=O)CCCl)OCC(COC(=O)CCS(=O)(=O)CCCl)(COC(=O)CCS(=O)(=O)CCCl)COC(=O)CCS(=O)(=O)CCCl | 68 to 69
32 | O=C(OCc1ccc(OCCCCCCCCCCC2c3c(c4ccccc4c4ccccc34)-c3c2c2ccccc2c2ccccc32)cc1)C(=CNC1CC1)C(=O)c1cc(F)c(F)cc1F | 49 to 51
33 | CC(=O)OCC(O)CO (stereo unspecified) | 17
34 | CCC1(CC)c2cc(-c3nc4ccccc4s3)ccc2-c2ccc(N(Cc3ccccc3)c3ccc4c(c3)C(CC)(CC)c3cc(-c5nc6ccccc6s5)ccc3-4)cc21 | 174 to 176

Continued, values first:

Row | melting point [°C] | Compound
35 | 235 | CS(=O)(=O)N1CC=C(C#Cc2ccc3c(c2)NC(=O)CC(c2cccc(C#N)c2)=N3)CC1
36 | 221 to 223 | CCOc1ccc(C(=CC2(C=C(c3ccc(OCC)cc3)c3ccc(N4CCCC4)cc3)OC(=O)c3c(Cl)c(Cl)c(Cl)c(Cl)c32)c2ccc(N3CCCC3)cc2)cc1 (stereo unspecified)
37 | 102 to 105 | CC[C@H](C)CNC(=O)[C@@H](C[C@H](O)[C@H](CC1CCCCC1)NC(=O)[C@H](Cc1cscn1)NC(=O)[C@@H](CC(=O)N1CCOCC1)Cc1cccc2ccccc12)C(C)(C)O
38 | 301 to 306 | CSc1ccc2c3c(cccc13)C(=O)N(O)C2=O
39 | 109 to 110 | CCCCCCc1cc(S(C)(=O)=NS(=O)(=O)c2ccc(C)cc2)ccc1O (stereo unspecified)
40 | 128 | CCN(C(=O)NC)C1C(Cl)=C(OC2=C(Cl)C(N(CC)C(=O)NC)C(c3ccccc3C(F)(F)F)([N+](=O)[O-])C=C2)C=CC1(c1ccccc1C(F)(F)F)[N+](=O)[O-] (stereo unspecified)
41 | 129 to 130 | CCOCc1nc(C(C)(C)O)c(C(=O)OCc2oc(=O)oc2C)n1Cc1ccc(-c2ccccc2-c2nnnn2C(c2ccccc2)(c2ccccc2)c2ccccc2)cc1
42 | 140 to 142 | CCCC(=O)c1cnc2c(C(C)O)cccc2c1Nc1ccccc1C (stereo unspecified)
43 | 113 to 115 | C=CCN(CC=C)c1nc(NC(C)(C)CC(C)(C)C)nc(N(CCCCCCN(c2nc(NC(C)(C)CC(C)(C)C)nc(N(CC=C)CC=C)n2)C2CC(C)(C)NC(C)(C)C2)C2CC(C)(C)NC(C)(C)C2)n1
44 | 120 | CC(C)[Si](OC(=O)Cc1cc(I)c(Oc2cc(I)c(OCC3CO3)c(I)c2)c(I)c1)(C(C)C)C(C)C (stereo unspecified)
45 | 209 to 210 | CC(=O)c1ccc(-n2c(-c3sc(Nc4ccc(Cl)cc4)nc3C)nc3ccccc3c2=O)cc1
46 | 174 to 176 | COc1cc(OC)c(C=CC(c2ccc(OC)c(NC(=O)C(C)O)c2)S(=O)(=O)C(C=Cc2c(OC)cc(OC)cc2OC)c2ccc(OC)c(NC(=O)C(C)O)c2)c(OC)c1 (stereo unspecified)
47 | 198 | CC(=O)N(CC(CO)(CO)CN(Oc1c(I)c(C(=O)N(CCO)CCO)c(I)c(C(=O)N(CCO)CCO)c1I)C(C)=O)Oc1c(I)c(C(=O)N(CCO)CCO)c(I)c(C(=O)N(CCO)CCO)c1I
48 | 16 | Cc1ccc(O)c(Br)c1
49 | 180 to 181 | CS(=N)(=O)c1ccc(-n2cnnn2)cc1 (stereo unspecified)
50 | 122 to 124 | N=C(Nc1ccc2[nH]cc(C3=CCN4CCCC4C3)c2c1)c1cccs1 (stereo unspecified)
51 | 129 to 131 | CC(C)c1oncc1S(=O)(=O)c1ccc(O)cc1
52 | 221 to 223 | CC(C)(C)c1cc(SC(Sc2cc(C(C)(C)C)c(O)c(C(C)(C)C)c2)C(Sc2cc(C(C)(C)C)c(O)c(C(C)(C)C)c2)Sc2cc(C(C)(C)C)c(O)c(C(C)(C)C)c2)cc(C(C)(C)C)c1O
53 | 77 to 78 | CCCCCCCCCCCCCCCC(=O)OCC1OC(n2cc(F)c(=O)n(C(=O)c3cccc(OC)c3OC)c2=O)CC1OC(=O)CCCCCCCCCCCCCCC (stereo unspecified)
54 | 192 to 195 | COc1ccc(Br)cc1S(=O)(=O)Nc1onc(C)c1Br
55 | 247 to 249 | CC(C)(C)CC(C)(C)c1cc(-n2nc3ccc(-c4ccc(-c5ccc6nn(-c7cc(C(C)(C)CC(C)(C)C)cc(C(C)(C)c8ccccc8)c7O)nc6c5)cc4)cc3n2)c(O)c(C(C)(C)c2ccccc2)c1
56 | 149 to 151 | NC(=NO)c1ccc(Cl)cc1Cl
57 | 140 to 141 | CC(C)n1c(CC[C@@H](O)C[C@@H](O)CC(=O)O)c(-c2ccc(F)cc2)c(-c2ccccc2)c1C(=O)NCc1cccc(C(=O)O)c1
58 | 114 to 123 | O=C(NCCCCCCCCCCCCNC(=O)C(O)C(O)C(O)C(O)COC1OC(CO)C(O)C(O)C1O)C(O)C(O)C(O)C(O)COC1OC(CO)C(O)C(O)C1O (stereo unspecified)
59 | 112 to 115 | COc1ccc([C@@H]2Sc3ccccc3N(CCN(C)C)C(=O)[C@@H]2OC(=O)CCC(=O)O[C@H]2C(=O)N(CCN(C)C)c3ccccc3S[C@H]2c2ccc(OC)cc2)cc1 (relative stereo)
60 | 126 | CC(C)(CCCCCCCCC(C)(C)NC(=O)C(C)(C)Cc1cc(C(C)(C)C)c(O)c(C(C)(C)C)c1)NC(=O)C(C)(C)Cc1cc(C(C)(C)C)c(O)c(C(C)(C)C)c1
61 | 116 | CCN(CC)CCN=S(=O)(c1ccccc1)c1cccs1 (stereo unspecified)

Source: a melting point compilation (Tetko et al.)
